In patent US8299056B2 (Signal Pharmaceuticals, LLC, priority 2008, dated 2012) one finds IC50 data, which are given here for 38 compounds.

Like-named read-outs stand apart in the source and are kept apart here.

The target in the experiment is T1, Syk (Homo sapiens, UniProt P43405).
T1 construct: purchased Carna Biosciences
Description: Syk HTRF assay. The class given is biochemical. In outline:
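HTRF kinase assay in HEPES pH 7.6 buffer with MgCl2, DTT and Triton X100; start mix of 87.5 μM ATP and 80 nM biotinylated peptide, 1 h at room temperature. EDTA stop, then Eu-anti-phosphotyrosine/streptavidin-DyLight 647 detection, read as 665/615 nm emission ratio.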

Where [1] appears, read: activity levels A-D, read-out: Activity Level (IC50 in the Syk HTRF assay).
Setting [2] is: read-out: Activity Level (Syk HTRF assay IC50).
[3] abbreviates: IC50 activity level, read-out: Activity Level.

Take `N#Cc1cccc(Nc2nc3cccc(N[C@H]4CC[C@@H](O)CC4)n3n2)c1` [Example 348, cis-3-(5-(4-hydroxycyclohexylamino)-[1,2,4]triazolo[1,5-a]pyridin-2-ylamino)benzonitrile]: under setting [1], the IC50 was 250 to 500 nM.

On to `CNC(=O)c1ccc(Nc2nc3cccc(-c4cccnc4)n3n2)cc1` [Example 325, N-methyl-4-(5-(pyridin-3-yl)-[1,2,4]triazolo[1,5-a]pyridin-2-ylamino)benzamide], for which, under setting [1], the IC50 was in the range of 500 to 1000 nM.

In the case of `CNC(=O)c1ccc(Nc2nc3cccc(-c4cccc(F)c4)n3n2)cc1` [compound 12, 4-(5-(3-fluorophenyl)-[1,2,4]triazolo[1,5-a]pyridin-2-ylamino)-N-methylbenzamide], the IC50 under setting [2] lay within 250 to 500 nM.

Consider `C[C@@H](CN)Cc1cccc2nc(Nc3ccccc3)nn12` [Example 458, (R)-5-(3-amino-2-methylpropyl)-N-phenyl-[1,2,4]triazolo[1,5-a]pyridin-2-amine], for which the IC50 under setting [3] fell in the range of 1000 to 10000 nM.

For the compound `OC1CCC(Nc2cccc3nc(Nc4ccccc4)nn23)CC1` (stereo in doubt) [Example 470, trans-4-(2-(phenylamino)-[1,2,4]triazolo[1,5-a]pyridin-5-ylamino)cyclohexanol], the IC50 under setting [3] is 1000 to 10000 nM.

As for `Cn1cnc2ccc(Nc3nc4cccc(-c5cccc(F)c5)n4n3)cc21` [compound 4], under setting [2], the IC50 is 0.005 to 250 nM.

On to `CN(c1ccccc1)c1cccc2nc(Nc3ccccc3)nn12` [Example 472, N^5-methyl-N^2,N^5-diphenyl-[1,2,4]triazolo[1,5-a]pyridin-2,5-diamine], for which the IC50 under setting [3] was in the range of 1000 to 10000 nM.

For the compound `CC(C)C(=O)Nc1cccc2nc(Nc3ccccc3)nn12` [Example 526, N-(2-(phenylamino)-[1,2,4]triazolo[1,5-a]pyridin-5-yl)isobutyramide], the IC50 under setting [3] fell in the range of 1000 to 10000 nM.

Take `O[C@@H]1CCC[C@H]1Nc1cc(-c2cccc3nc(Nc4ccc(C(F)(F)F)cc4)nn23)ccn1` [Example 246, (1R,2R)-2-(4-(2-(4-(trifluoromethyl)phenylamino)-[1,2,4]triazolo[1,5-a]pyridin-5-yl)pyridin-2-ylamino)cyclopentanol]: the IC50 under setting [1] lay within 500 to 1000 nM.

Regarding `CC1(C)C(=O)Nc2cc(Nc3nc4cccc(OC5CCOC5)n4n3)ccc21` (stereo in doubt) [Example 134, (R)-3,3-dimethyl-6-(5-(tetrahydrofuran-3-yloxy)-[1,2,4]triazolo[1,5-a]pyridin-2-ylamino)indolin-2-one], the IC50 under setting [2] was 0.005 to 250 nM.

With `Cc1cc(Nc2nc3cccc(N[C@H]4CC[C@@H](O)CC4)n3n2)cc2c1C(C)(C)C(=O)N2` [compound 109, cis-6-(5-(4-hydroxycyclohexylamino)-[1,2,4]triazolo[1,5-a]pyridin-2-ylamino)-3,3,4-trimethylindolin-2-one], the IC50 under setting [2] fell in the range of 0.005 to 250 nM.

As for `Cc1cc(Nc2nc3cccc(CN4CCNC(=O)C4)n3n2)ccc1F` [Example 228, 4-((2-(4-fluoro-3-methylphenylamino)-[1,2,4]triazolo[1,5-a]pyridin-5-yl)methyl)piperazin-2-one], the IC50 under setting [1] fell in the range of 250 to 500 nM.

As to `Cc1n[nH]c2cc(Nc3nc4cccc(CNCC(N)=O)n4n3)ccc12` [Example 186, 2-((2-(3-methyl-1H-indazol-6-ylamino)-[1,2,4]triazolo[1,5-a]pyridin-5-yl)methylamino)acetamide], the IC50 under setting [2] was in the range of 0.005 to 250 nM.

With `O[C@H]1CC[C@@H](Nc2cccc3nc(Nc4ccc(-c5nc[nH]n5)cc4)nn23)CC1` [Example 567, cis-4-(2-(4-(1H-1,2,4-triazol-3-yl)phenylamino)-[1,2,4]triazolo[1,5-a]pyrridin-5-ylamino)cyclohexanol], under setting [3], the IC50 was in the range of 0.005 to 250 nM.

As to `CC1(C)NC(=O)c2cc(Nc3nc4cccc(N[C@H]5CC[C@H](O)CC5)n4n3)ccc21` (stereo in doubt) [Example 137, trans-6-(5-(4-hydroxycyclohexylamino)-[1,2,4]triazolo[1,5-a]pyridin-2-ylamino)-3,3-dimethylisoindolin-1-one], under setting [2], the IC50 fell in the range of 500 to 1000 nM.

Consider `c1ccc(-c2cccc3nc(Nc4cccnc4)nn23)cc1` [compound 75, 5-phenyl-N-(pyridin-3-yl)-[1,2,4]triazolo[1,5-a]pyridin-2-amine], for which the IC50 under setting [2] is 500 to 1000 nM.

With `Cc1n[nH]c2cc(Nc3nc4cccc(N(C)CCO)n4n3)ccc12` [Example 190, 2-(methyl(2-(3-methyl-1H-indazol-6-ylamino)-[1,2,4]triazolo[1,5-a]pyridin-5-yl)amino)ethanol], the IC50 under setting [2] lay within 0.005 to 250 nM.

`COCc1n[nH]c2cc(Nc3nc4cccc(CN5CCNC(=O)C5)n4n3)ccc12` [Example 533, 4-((2-(3-(methoxymethyl)-1H-indazol-6-ylamino)-[1,2,4]triazolo[1,5-a]pyridin-5-yl)methyl)piperazin-2-one]: the IC50 under setting [3] was 0.005 to 250 nM.

Take `Cc1cc(Nc2nc3cccc(N[C@H]4CC[C@@H](O)CC4)n3n2)c2c(c1)N(C)C(=O)C2` [Example 554, cis-4-(5-(4-hydroxycyclohexylamino)-[1,2,4]triazolo[1,5-a]pyridin-2-ylamino)-1,6-dimethylindolin-2-one]: the IC50 under setting [3] was 500 to 1000 nM.

In the case of `CC1(C)NC(=O)c2cc(Nc3nc4cccc(NC5CCOCC5)n4n3)ccc21` [compound 128, 3,3-dimethyl-6-(5-(tetrahydro-2H-pyran-4-ylamino)-[1,2,4]triazolo[1,5-a]pyridin-2-ylamino)isoindolin-1-one], the IC50 under setting [2] lay in the range of 500 to 1000 nM.

With `Cc1n[nH]c2cc(Nc3nc4cccc(O[C@@H]5COC[C@@H]5O)n4n3)ccc12` (racemic) [Example 165, (±)-cis-4-(2-(3-methyl-1H-indazol-6-ylamino)-[1,2,4]triazolo[1,5-a]pyridin-5-yloxy)tetrahydrofuran-3-ol], the IC50 under setting [2] is 250 to 500 nM.

With `CC(C)Nc1cccc2nc(Nc3ccccc3)nn12` [Example 530, N^5-isopropyl-N^2-phenyl-[1,2,4]triazolo[1,5-a]pyrridine-2,5-diamine], the IC50 under setting [3] was 500 to 1000 nM.

As for `OC1CN(c2cccc3nc(Nc4ccc(C(F)(F)F)cc4)nn23)C1` [Example 287, 1-(2-(4-(trifluoromethyl)phenylamino)-[1,2,4]triazolo[1,5-a]pyridin-5-yl)azetidin-3-ol], the IC50 under setting [1] lay within 0.005 to 250 nM.

As for `N[C@H]1CC[C@H](Nc2cccc3nc(Nc4ccccc4)nn23)CC1` (stereo in doubt) [Example 518, trans-N^5-(4-aminocyclohexyl)-N^2-phenyl-[1,2,4]triazolo[1,5-a]pyridine-2,5-diamine], under setting [3], the IC50 lay within 500 to 1000 nM.

Take `Cc1n[nH]c2cc(Nc3nc4cccc(N[C@H]5CC[C@H](O)CC5)n4n3)ccc12` (stereo in doubt) [Example 201, trans-4-(2-(3-methyl-1H-indazol-6-ylamino)-[1,2,4]triazolo[1,5-a]pyridin-5-ylamino)cyclohexanol]: the IC50 under setting [1] was 0.005 to 250 nM.

Regarding `c1ccc(Nc2nc3cccc(N[C@H]4CCCNC4)n3n2)cc1` [Example 507, (S)-N^2-phenyl-N^5-(piperidin-3-yl)-[1,2,4]triazolo[1,5-a]pyridin-2,5-diamine], under setting [3], the IC50 lay in the range of 0.005 to 250 nM.

Take `CC(C)n1ncc2ccc(Nc3nc4cccc(CN5CCNC(=O)C5)n4n3)cc21` [Example 188, 4-((2-(1-isopropyl-1H-indazol-6-ylamino)-[1,2,4]triazolo[1,5-a]pyridin-5-yl)methyl)piperazin-2-one]: under setting [2], the IC50 fell in the range of 0.005 to 250 nM.

For the compound `c1cc(N[C@@H]2CCCNC2)n2nc(Nc3ccc4c(c3)CNC4)nc2c1` [Example 449], under setting [3], the IC50 is 0.005 to 250 nM.

Take `FC(F)(F)c1n[nH]c2cc(Nc3nc4cccc(NC5CCOCC5)n4n3)ccc12` [compound 129]: the IC50 under setting [2] fell in the range of 250 to 500 nM.

On to `CC1(C)C(=O)Nc2cc(Nc3nc4cccc(N[C@@H]5CCCNC5)n4n3)ccc21` [compound 131, (R)-3,3-dimethyl-6-(5-(piperidin-3-ylamino)-[1,2,4]triazolo[1,5-a]pyridin-2-ylamino)indolin-2-one], for which the IC50 under setting [2] lay in the range of 0.005 to 250 nM.

Regarding `CNC(=O)c1ccc(Nc2nc3cccc(OC4CCNCC4)n3n2)cc1` [Example 284, N-methyl-4-(5-(piperidin-4-yloxy)-[1,2,4]triazolo[1,5-a]pyridin-2-ylamino)benzamide], the IC50 under setting [1] is 1000 to 10000 nM.

As for `O[C@H]1CCCN(Cc2cccc3nc(Nc4ccc(C(F)(F)F)cc4)nn23)C1` [Example 300, (S)-1-((2-(4-(trifluoromethyl)phenylamino)-[1,2,4]triazolo[1,5-a]pyridin-5-yl)methyl)piperidin-3-ol], under setting [1], the IC50 fell in the range of 1000 to 10000 nM.

`CCn1nc(C)c2ccc(Nc3nc4cccc(N[C@H]5CC[C@@H](O)CC5)n4n3)cc21` [Example 197, cis-4-(2-(1-ethyl-3-methyl-1H-indazol-6-ylamino)-[1,2,4]triazolo[1,5-a]pyridin-5-ylamino)cyclohexanol]: the IC50 under setting [2] lay within 0.005 to 250 nM.

For the compound `OC[C@H]1CCN(Cc2cccc3nc(Nc4ccc(C(F)(F)F)cc4)nn23)C1` [Example 324, (S)-(1-((2-(4-(trifluoromethyl)phenylamino)-[1,2,4]triazolo[1,5-a]pyridin-5-yl)methyl)pyrrolidin-3-yl)methanol], the IC50 under setting [1] is 1000 to 10000 nM.

For the compound `Cn1nc(NC2CCOCC2)c2ccc(Nc3nc4cccc(CC5CCOCC5)n4n3)cc21` [Example 99], the IC50 under setting [2] lay in the range of 1000 to 10000 nM.

For the compound `CC1(C)C(=O)Nc2cc(Nc3nc4cccc(NC5CCOCC5)n4n3)ccc21` [Example 177, 3,3-dimethyl-6-(5-(tetrahydro-2H-pyran-4-ylamino)-[1,2,4]triazolo[1,5-a]pyridin-2-ylamino)indolin-2-one], the IC50 under setting [2] fell in the range of 0.005 to 250 nM.

`OCC1CCN(Cc2cccc3nc(Nc4ccc(C(F)(F)F)cc4)nn23)CC1` [Example 274, (1-((2-(4-(trifluoromethyl)phenylamino)-[1,2,4]triazolo[1,5-a]pyridin-5-yl)methyl)piperidin-4-yl)methanol]: under setting [1], the IC50 fell in the range of 1000 to 10000 nM.

Take `Oc1cccc(-c2cccc3nc(Nc4ccc(N5CCOCC5)cc4)nn23)c1` [compound 32, 3-(2-(4-morpholinophenylamino)-[1,2,4]triazolo[1,5-a]pyridin-5-yl)phenol]: under setting [2], the IC50 fell in the range of 0.005 to 250 nM.
